We go through 10 compounds from patent US20240383869A1, “ARYLACETYL INHIBITORS OF TG2 AND USES THEREOF” (UNIVERSITY OF OTTAWA, priority 2021, published 2024).

Like-named read-outs stand apart in the source and are kept apart here.

The target of this assay is T1, hTG2 (Homo sapiens, UniProt P21980).
T1 sequence (P21980 1-687): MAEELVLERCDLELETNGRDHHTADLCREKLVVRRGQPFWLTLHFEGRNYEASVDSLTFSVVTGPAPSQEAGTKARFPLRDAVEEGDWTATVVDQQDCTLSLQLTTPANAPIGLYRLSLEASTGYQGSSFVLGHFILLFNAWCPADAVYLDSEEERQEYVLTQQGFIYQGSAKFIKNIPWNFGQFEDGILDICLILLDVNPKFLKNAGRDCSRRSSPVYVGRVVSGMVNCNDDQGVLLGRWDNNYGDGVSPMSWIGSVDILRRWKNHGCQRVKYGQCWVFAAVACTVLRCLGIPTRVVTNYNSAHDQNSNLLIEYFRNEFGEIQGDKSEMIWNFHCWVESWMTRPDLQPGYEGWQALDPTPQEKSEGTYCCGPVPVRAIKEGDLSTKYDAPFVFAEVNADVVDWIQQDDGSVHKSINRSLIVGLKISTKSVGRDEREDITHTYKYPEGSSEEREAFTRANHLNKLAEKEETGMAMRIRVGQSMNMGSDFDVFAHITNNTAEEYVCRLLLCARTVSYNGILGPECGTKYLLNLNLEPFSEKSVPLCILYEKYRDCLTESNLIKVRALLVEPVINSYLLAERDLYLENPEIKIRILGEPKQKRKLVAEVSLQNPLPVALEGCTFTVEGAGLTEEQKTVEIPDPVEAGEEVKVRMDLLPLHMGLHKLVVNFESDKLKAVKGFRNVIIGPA
Kind of assay: biochemical. Particulars: for Ki: read-out: KI (converted). Here is the method: The ability of the compounds to inhibit TG2 transamidase activity and the kinetics of TG2 inhibition were investigated using a colorimetric activity assay, as follows:
Colorimetric transamidase activity assay. The activities of hTG1, hTG2 and hTG6 were measured via a colorimetric assay using the chromogenic substrate Cbz-Glu(γ-p-nitrophenyl ester)Gly (AL5), as described (Leblanc, A. et al., “Kinetic studies of guinea pig liver transglutaminase reveal a general-base-catalyzed deacylation mechanism.” Biochemistry 2001, 40 (28), 8335-8342). Assays were conducted at 25° C. in 50 mM MOPS buffer (pH 6.95) containing 7.5 mM CaCl2. […] The substrate AL5 was prepared in as a stock solution in DMSO such that the final concentration of this co-solvent was constant at 2.5% v/v. Stock solutions of the inhibitors were made in water ranging in concentration from 100-500 μM. The reaction was initiated with the addition of enzyme, 0.10 μM hTG1, 0.25 μM hTG2 (4.6 mU/mL) or 0.32 μM hTG6. Formation of hydrolysis product, p-nitrophenolate (pNP), was monitored at 405 nm in a polystyrene 96-well microplate using a BioTek Synergy 4 plate reader. The observed first-order rate constants of inactivation (kobs) were determined via non-linear regression fit to a mono-exponential model (Eqn 1) of absorbance versus time curves. These rate constants (kobs) were in turn fit to a saturation kinetics model (Eqn 2), by non-linear regression, providing the kinetic parameters kinact and KI, as previously described by Stone and Hofsteenge (Stone, S. R. and Hofsteenge, J., “Specificity of activated human protein C.” Biochem. J. 1985, 230 (2), 497-502). […] Experiments were completed in triplicate at minimum.
Fitting of this time-dependent inactivation to a monoexponential equation gave first-order rate constants, kobs. […] In some cases, the kinetic data were fitted to a linear double reciprocal equation.

[1] abbreviates: values determined using a double-reciprocal analysis.
The mark [2] stands for this setting: values determined using a double-reciprocal analysis, read-out: kinact (converted).
Where [3] appears, read: values determined using a double-reciprocal analysis, read-out: kinact/KI (converted).
The mark [4] stands for this setting: fit to saturation kinetics model, 25° C., pH 6.95, 100 μM AL5.
Where [5] appears, read: fit to saturation kinetics model, 25° C., pH 6.95, 100 μM AL5, read-out: kinact (converted).
[6] abbreviates: fit to saturation kinetics model, 25° C., pH 6.95, 100 μM AL5, read-out: kinact/KI (converted).

A word on the Ki: it is the equilibrium dissociation constant of an inhibitor or competing ligand from its target. In general, kinact refers to the rate constant of inactivation at saturating inhibitor. As to `C=CC(=O)NCCCC[C@H](NC(=O)c1cccnc1)C(=O)N1CCN(C(=O)c2cccc3ccccc23)CC1` [Inhibitor 19, (S)-N-(1-(4-(1-naphthoyl)piperazin-1-yl)-6-acrylamido-1-oxohexan-2-yl)nicotinamide], under setting [1], the Ki is 25.4 ± 2.8 µM. Besides, the kinact under setting [2] is 0.00983 s⁻¹. For the same compound, the kinact/KI under setting [3] was 388 M⁻¹ s⁻¹.

Turning to `C=CC(=O)NCCCC[C@H](NC(=O)CC1CCCCC1)C(=O)N1CCN(C(=O)c2cccc3ccccc23)CC1` [Inhibitor 34, (S)-N-(6-(4-(1-naphthoyl)piperazin-1-yl)-5-(2-cyclohexylacetamido)-6-oxohexyl)acrylamide], the Ki under setting [4] was 12.2 ± 2.4 µM. Moreover, the kinact under setting [5] is 0.00433 s⁻¹. Also, the kinact/KI under setting [6] is 348 M⁻¹ s⁻¹.

On to `C=CC(=O)NCCCC[C@H](NS(=O)(=O)Cc1ccccc1)C(=O)N1CCN(C(=O)c2cccc3ccccc23)CC1` [Inhibitor 88], for which, under setting [4], the Ki was 46.7 ± 10.2 µM. Also, the kinact under setting [5] is 0.00883 s⁻¹. The kinact/KI under setting [6] was 190 M⁻¹ s⁻¹.

Regarding `C=CC(=O)NCCCC[C@H](NC(=O)Cc1ccc(Cl)c(Cl)c1)C(=O)N1CCN(C(=O)c2cccc3ccccc23)CC1` [Inhibitor 79, (S)-N-(6-(4-(1-naphthoyl)piperazin-1-yl)-5-(2-(3,4-dichlorophenyl)acetamido)-6-oxohexyl)acrylamide], under setting [4], the Ki is 0.58 ± 0.3 µM. For the same compound, the kinact under setting [5] is 0.00133 s⁻¹. Moreover, the kinact/KI under setting [6] is 2180 M⁻¹ s⁻¹.

Turning to `C=CC(=O)NCCCC[C@H](NC(=O)c1ccccc1)C(=O)N1CCN(C(=O)c2cccc3ccccc23)CC1` [Inhibitor 61, (S)-N-(1-(4-(1-naphthoyl)piperazin-1-yl)-6-acrylamido-1-oxohexan-2-yl)benzamide], the kinact is 0.0118 s⁻¹ and the kinact/KI is 983 M⁻¹ s⁻¹. Also, under setting [4], the Ki is 27.6 ± 8.1 µM. Also, the kinact/KI (pH 6.95) is 807 M⁻¹ s⁻¹. Besides, the Ki under setting [1] is 12 µM.

In the case of `C=CC(=O)NCCCC[C@H](NC(=O)Cc1cccc(Cl)c1Cl)C(=O)N1CCN(C(=O)c2cccc3ccccc23)CC1` [Inhibitor 78, (S)-N-(6-(4-(1-naphthoyl)piperazin-1-yl)-5-(2-(2,3-dichlorophenyl)acetamido)-6-oxohexyl)acrylamide], the Ki under setting [4] was 2.7 ± 2.8 µM. Also, the kinact under setting [5] was 0.00767 s⁻¹. Further, the kinact/KI under setting [6] is 2830 M⁻¹ s⁻¹.

On to `C=CC(=O)NCCCC[C@H](NC(=O)CC(C)C)C(=O)N1CCN(C(=O)c2cccc3ccccc23)CC1` [Inhibitor 38, (S)-N-(1-(4-(1-naphthoyl)piperazin-1-yl)-6-acrylamido-1-oxohexan-2-yl)-3-methylbutanamide], for which, under setting [4], the Ki was 9.7 ± 1.9 µM. Under setting [5], the kinact is 0.0107 s⁻¹. In addition, under setting [6], the kinact/KI was 1110 M⁻¹ s⁻¹.

For the compound `C=CC(=O)NCCCC[C@H](NC(=O)CC)C(=O)N1CCN(C(=O)c2cccc3ccccc23)CC1` [Inhibitor 40, (S)-N-(6-(4-(1-naphthoyl)piperazin-1-yl)-6-oxo-5-propionamidohexyl)acrylamide], the Ki under setting [4] is 5.1 ± 1 µM. In addition, the kinact under setting [5] was 0.00883 s⁻¹. Besides, the kinact/KI under setting [6] is 1720 M⁻¹ s⁻¹.

Consider `C=CC(=O)NCCCC[C@H](NC(=O)Cc1ccc(F)cc1)C(=O)N1CCN(C(=O)c2cccc3ccccc23)CC1` [Inhibitor 70, (S)-N-(6-(4-(1-naphthoyl)piperazin-1-yl)-5-(2-(4-fluorophenyl)acetamido)-6-oxohexyl)acrylamide], for which the Ki under setting [4] was 4.2 ± 0.9 µM. Besides, under setting [5], the kinact is 0.00817 s⁻¹. Under setting [6], the kinact/KI is 1980 M⁻¹ s⁻¹.

Regarding `C=CC(=O)NCCCC[C@H](NC(=O)c1ccncc1)C(=O)N1CCN(C(=O)c2cccc3ccccc23)CC1` [Inhibitor 20, (S)-N-(1-(4-(1-naphthoyl)piperazin-1-yl)-6-acrylamido-1-oxohexan-2-yl)isonicotinamide], the inhibition constant (Ki) under setting [1] was 19.3 ± 4.3 µM. The kinact under setting [2] was 0.004 s⁻¹. Moreover, the kinact/KI under setting [3] was 212 M⁻¹ s⁻¹.
